# Measured values from ChEMBL document CHEMBL4651402, “Screening of ~5500 FDA-approved drugs and clinical candidates for anti-SARS-CoV-2 activity” (2021).
# Test system: SARS-CoV-2
# Experiment: microbe, parasite or virus in culture
# Settings: Severe acute respiratory syndrome coronavirus 2, Vero C1008, 48 h
SMILES,IC50,IC50 (read-out: pIC50 (converted))
CN(Cc1cnc2nc(N)nc(N)c2n1)c1ccc(C(=O)NC(CCC(=O)O)C(=O)O)cc1 (stereo not drawn),> 20 µM,> 20 µM
CC[N+](C)(CC)CCOC(=O)C(O)(c1cccs1)C1CCCC1 (stereo not drawn) [PENTHIENATE],> 20 µM,> 20 µM
CN1C(CC(O)c2ccccc2)CCCC1CC(O)c1ccccc1 (stereo not drawn),> 20 µM,> 20 µM
Cc1nc2ccccc2c(=O)n1-c1ccccc1Cl [MECLOQUALONE],> 20 µM,> 20 µM
CCCC(=O)c1ccc2c(c1)N(CCCN1CCN(C)CC1)c1ccccc1S2 [BUTAPERAZINE],> 20 µM,> 20 µM
C=C1CCC2C(CC2(C)C)C(=O)CCC1O (stereo not drawn) [ISOKOBUSONE],> 20 µM,> 20 µM
CC(C)Cc1ccc(CC(=O)O)cc1 [IBUFENAC],> 20 µM,> 20 µM
COCCOc1cnc(NS(=O)(=O)c2ccccc2)nc1 [GLYMIDINE],> 20 µM,> 20 µM
CNCCCN1c2ccccc2CCc2ccccc21 [DESIPRAMINE],> 20 µM,> 20 µM
O=C(O)[C@H]1C[C@H]([C@H]2CCCCN2)CN2CCCC[C@H]12,> 20 µM,> 20 µM
CCCCC(=O)O[C@]1(C(=O)CO)C(C)CC2C3CCC4=CC(=O)C=CC4(C)[C@@]3(F)C(O)CC21C (stereo partly drawn),> 20 µM,> 20 µM
CN(C)CC(CN1c2ccccc2Sc2ccccc21)N(C)C (stereo not drawn) [AMINOPROMAZINE],> 20 µM,> 20 µM
C=CC(=O)Nc1ccc2ncnc(Nc3ccc(OCc4cccc(F)c4)c(Cl)c3)c2c1 [ALLITINIB],> 20 µM,> 20 µM
O=C1C(O)=C([C@H]2CC[C@H](c3ccc(Cl)cc3)CC2)C(=O)c2ccccc21 [ATOVAQUONE],> 20 µM,> 20 µM
COc1ccc2c3c1O[C@H]1C(=O)CC[C@H]4[C@@H](C2)N(C)CC[C@]314 [HYDROCODONE],> 20 µM,> 20 µM
CC(=O)O[C@H]1C(=O)[C@@]2(C)C([C@H](OC(=O)c3ccccc3)[C@]3(O)C[C@H](OC(=O)[C@H](O)[C@@H](NC(=O)c4ccccc4)c4ccccc4)C(C)=C1C3(C)C)[C@]1(OC(C)=O)CO[C@@H]1C[C@@H]2O (stereo partly drawn),> 20 µM,> 20 µM
OC[C@H]1O[C@H](O)C[C@@H](O)[C@@H]1O,> 20 µM,> 20 µM
CN(C(=O)CNC(=O)CN)c1ccc(Cl)cc1C(=O)c1ccccc1Cl [LORZAFONE ANHYDROUS],> 20 µM,> 20 µM
COc1ccc2[nH]c([S+]([O-])Cc3ncc(C)c(OC)c3C)nc2n1 (stereo not drawn) [TENATOPRAZOLE],> 20 µM,> 20 µM
COc1ccc(-c2ccc3c(N4CCOC[C@@H]4C)nc(N4CCOC[C@@H]4C)nc3n2)cc1CO [AZD-8055],> 20 µM,> 20 µM
CCOc1ccc(/C=C2\NCCc3cc(OCC)c(OCC)cc32)cc1OCC [DROTAVERINE],> 20 µM,> 20 µM
NCC(CC(=O)O)c1ccc(Cl)cc1 (stereo not drawn) [BACLOFEN],> 20 µM,> 20 µM
CC(=O)OC1(C(C)=O)CCC2C3CC(C)C4=CCCCC4(C)C3CCC21C (stereo not drawn),> 20 µM,> 20 µM
Nc1nc(N)c(-c2ccccc2)s1 [AMIPHENAZOLE],> 20 µM,> 20 µM
CC(C1=C(CCN(C)C)Cc2ccccc21)c1ccccn1 (stereo not drawn),> 20 µM,> 20 µM

SMILES,IC50,IC50 (read-out: pIC50 (converted))
CCCCCCCCCCCCCC[C@@H](O)[C@@H](O)[C@@H](N)CO [PHYTOSPHINGOSINE],> 20 µM,> 20 µM
NS(=O)(=O)c1cc(-c2nnn[nH]2)c(NCc2cccs2)cc1Cl [AZOSEMIDE],> 20 µM,> 20 µM
CC(C)Cc1sc(-c2nccs2)nc1C(=O)NCc1ccc(F)cc1,> 20 µM,> 20 µM
COc1cc(N)c(Cl)cc1C(=O)NC1CCN(Cc2ccccc2)CC1 [CLEBOPRIDE],> 20 µM,> 20 µM
CCCCC1=NC2(CCCC2)C(=O)N1Cc1ccc(-c2ccccc2-c2nnn[nH]2)cc1 [IRBESARTAN],> 20 µM,> 20 µM
CCOC(=O)C1(c2ccccc2)CCN(CCCNc2ccccc2)CC1 [PIMINODINE],> 20 µM,> 20 µM
COC(=O)C1=C(C)NC(C)=C(C(=O)OCCCN2CCC(c3ccccc3)(c3ccccc3)CC2)[C@@H]1c1cccc([N+](=O)[O-])c1 [DEXNIGULDIPINE],> 20 µM,> 20 µM
C[C@@](Cc1ccc(O)c(O)c1)(NN)C(=O)O [CARBIDOPA ANHYDROUS],> 20 µM,> 20 µM
Cc1ccccc1OCC(O)CO (stereo not drawn) [MEPHENESIN],> 20 µM,> 20 µM
C[N+]1(C)CCC(OC(=O)C(O)(c2ccccc2)c2ccccc2)CC1 [PARAPENZOLATE],> 20 µM,> 20 µM
O=C(O)c1ccccc1NCCc1ccccc1 [ENFENAMIC ACID],> 20 µM,> 20 µM
CN(CC(=O)O)C(=N)N [CREATINE],> 20 µM,> 20 µM
Cc1ccc(S(=O)(=O)NC(=O)NN2CC3CCCC3C2)cc1 (stereo not drawn) [GLICLAZIDE],> 20 µM,> 20 µM
C[C@]12CCC(=O)C=C1CC[C@@H]1[C@@H]2C(=O)C[C@]2(C)C(=O)CC[C@@H]12 [ADRENOTERONE],> 20 µM,> 20 µM
O=c1[nH]sc2cc(Cl)ccc12 [TICLATONE],> 20 µM,> 20 µM
CC1CC2(C)C3CCC4(C)C(O)CCC4C3CC[C@H]2CC1=O (stereo partly drawn),> 20 µM,> 20 µM
Cc1c(-c2c(F)cc(C(N)=O)c3[nH]c4c(c23)CC[C@H](C(C)(C)O)C4)cccc1-n1c(=O)c2cccc(F)c2n(C)c1=O [BMS-986142],> 20 µM,> 20 µM
CC(=O)N1C[C@H](O)C[C@H]1C(=O)N[C@@H](CCCN=C(N)N)C(=O)c1nc2ccccc2s1,> 20 µM,> 20 µM
C=CC(N)CCC(=O)O (stereo not drawn) [VIGABATRIN],> 20 µM,> 20 µM
CC1(c2ccccc2)Cc2cc(OCC(=O)O)c(Cl)c(Cl)c2C1=O (stereo not drawn) [INDACRINONE],> 20 µM,> 20 µM
CC[C@@H](C)n1ncn(-c2ccc(N3CCN(c4ccc(OC[C@H]5CO[C@@](Cn6cncn6)(c6ccc(F)cc6F)O5)cc4)CC3)cc2)c1=O,> 20 µM,> 20 µM
OC(CCN1CCCCC1)(c1ccccc1)C1CCCCC1 (stereo not drawn) [TRIHEXYPHENIDYL],> 20 µM,> 20 µM
Nc1nc(F)nc2c1ncn2[C@@H]1O[C@H](CO)[C@@H](O)[C@H]1O,> 20 µM,> 20 µM
CC(C)(C)C#Cc1cc(N(C(=O)[C@H]2CC[C@H](C)CC2)[C@H]2CC[C@@H](O)CC2)c(C(=O)O)s1,> 20 µM,> 20 µM
COCc1c(-c2cc3cc(C)cc(OC)c3s2)c2c(N)ncnn2c1CN1CCNC(=O)C1 [ROGARATINIB],> 20 µM,> 20 µM

SMILES,IC50,IC50 (read-out: pIC50 (converted))
CC[C@@H]1CCN[C@H](C(=O)N[C@H]([C@H]2O[C@H](SC)[C@H](O)[C@@H](O)[C@H]2O)[C@H](C)Cl)C1,> 20 µM,> 20 µM
COc1ccc2c(c1)Sc1ccc(C(C)C(=O)O)cc1N2C (stereo not drawn) [PROTIZINIC ACID],> 20 µM,> 20 µM
CC(=O)N[C@@H](C=O)[C@@H](O)[C@H](O)[C@H](O)CO,> 20 µM,> 20 µM
C=C(C)CC1(CC)C(=O)NC(=S)NC1=O,> 20 µM,> 20 µM
CN1CCc2cc(Cl)c(O)cc2[C@H]2c3ccccc3CC[C@@H]21 [ECOPIPAM],> 20 µM,> 20 µM
CCN1c2ncc(CCOc3cc[n+]([O-])c4ccccc34)cc2C(=O)N(C)c2cccnc21 [BILR 355],> 20 µM,> 20 µM
CC(C)(CO)[C@@H](O)C(=O)NCCCO [DEXPANTHENOL],> 20 µM,> 20 µM
CC(C)=CCC/C(C)=C/CC/C(C)=C/CN1CCN(Cc2ccc3c(c2)OCO3)CC1 [PIFARNINE],> 20 µM,> 20 µM
CCCCC1C(=O)NC(=O)N(C2CCCCC2)C1=O (stereo not drawn) [BUCOLOME],> 20 µM,> 20 µM
O=C1[C@H]2CCCC[C@H]2C(=O)N1CCCCN1CCN(c2nsc3ccccc23)CC1 [PEROSPIRONE],> 20 µM,> 20 µM
CC(N)C(=O)c1ccccc1 (stereo not drawn) [DEALKYLATED DIETHYLPROPION],> 20 µM,> 20 µM
CC1(C)O[C@@H]2C[C@H]3[C@@H]4C[C@H](F)C5=CC(=O)CC[C@]5(C)[C@H]4[C@@H](O)C[C@]3(C)[C@]2(C(=O)CO)O1 [FLURANDRENOLIDE],> 20 µM,> 20 µM
C[C@H]1[C@H](NC(=O)/C(=N\OC(C)(C)C(=O)O)c2csc(N)n2)C(=O)N1S(=O)(=O)O [AZTREONAM],> 20 µM,> 20 µM
COCCNc1cc(NC(=O)N2CCCc3cc(CN4CCN(C)CC4=O)c(C=O)nc32)ncc1C#N [FGF401],> 20 µM,> 20 µM
Cc1c(Nc2ncccc2C(=O)O)cccc1C(F)(F)F [FLUNIXIN],> 20 µM,> 20 µM
CC(C)(CO)CCCCCCC(C)(C)CO [GEMCADIOL],> 20 µM,> 20 µM
CCN(CCCC(=O)C1CCCCC1)[C@@H](C)Cc1ccc(OC)cc1 [DEXSECOVERINE],> 20 µM,> 20 µM
C[C@]1(O)C[C@@H](c2nc(-c3ccc4ccc(-c5ccccc5)nc4c3)c3c(N)nccn32)C1 [LINSITINIB],> 20 µM,> 20 µM
CC(C)Cn1cnc2c(N)nc3ccccc3c21 [IMIQUIMOD],> 20 µM,> 20 µM
Cn1nnc2ccc(C(c3ccc(Cl)cc3)n3cncn3)cc21 (stereo not drawn) [rac-VOROZOLE],> 20 µM,> 20 µM
CC(C)(O)c1ccccc1CC[C@@H](SCC1(CC(=O)O)CC1)c1cccc(/C=C/c2ccc3ccc(Cl)cc3n2)c1 [MONTELUKAST],> 20 µM,> 20 µM
CN1CCOC(c2ccccc2)c2ccccc2C1 (stereo not drawn) [NEFOPAM],> 20 µM,> 20 µM
CN1[C@@H]2CC[C@H]1C[C@@H](OC(=O)c1c[nH]c3ccccc13)C2 [TROPISETRON],> 20 µM,> 20 µM
CCn1cc(C(=O)O)c(=O)c2ccc(C)nc21 [NALIDIXIC ACID],> 20 µM,> 20 µM
